From US7358233B2, “Tetronic acid derivative” (Toudai TLO, Ltd, priority 2001, dated 2008)

Legend:
HT-29 cells [1] = test: Antitumor effect against HT-29 cells transplanted into nude mice; format: in vivo; settings: HT-29 tumor grown to 100 mm^3 in nude mice; VST through the tail vein (FIG. 15)
Procedure: The antitumor effect of VST at the animal level was examined. Specifically, HT-29 cells were transplanted into nude mice and tumor was grown to 100 mm^3. Subsequently, each concentration of VST was administered through the tail vein, progress of cancer was followed each day thereafter, and the tumor was enucleated to compare its size. […] Furthermore, the combined effect with CDDP (cisplatin) was examined.

HT-29 cells [2] = test: Combined use of VST and cisplatin, colony-forming ability of HT-29 cells; format: cell-based; settings: glucose starvation condition
Text: Enhancement of endoplasmic reticulum stress response promotes survival of cells under undernutritive conditions, and at the same time allows cells to acquire resistance to antitumor agents. Therefore, the inventors intended to examine the effect of VST on known antitumor agents. […] Therefore, the combined effect with other pharmaceutical agents could not be duly examined. Thus, cisplatin generally used for solid cancer treatment was used to examine the combined effect, due to its activity on cancer cells that is maintained even under low glucose conditions. Specifically, HT-29 cells were cultured by the above-mentioned method, pretreated for 30 min with VST, and then cultured for 18 hours. The cells were then treated for 4 hours with each concentration of cisplatin, and a week later their colony-forming ability was examined.

For `N.N.[Cl][Pt][Cl]` [cisplatin, reference compound], the “antitumor effect (tumor size)” value (HT-29 cells [1]) was “sufficient” and the “activity on colony-forming ability under glucose starvation condition” value (HT-29 cells [2]) was “enhance the activity”.
